Laboratory results as given in patent publication US10106504B2, “Pyridin-3-yl acetic acid derivatives as inhibitors of human immunodeficiency virus replication” (priority 2015, dated 2018).
Read-outs that look alike come from different tables or passages of the source.

System: NL-RLuc virus
Assay: Inhibition of HIV replication (NL-RLuc virus, luciferase readout in MT-2 cells)
Format: cell-based
Details: Human immunodeficiency virus 1, MT2, 120 h
Source text: Inhibition of HIV Replication:
A recombinant NL-RLuc proviral clone was constructed in which a section of the nef gene from NL4-3 was replaced with the Renilla Luciferase gene. This virus is fully infectious and can undergo multiple cycles of replication in cell culture. In addition, the luciferous reporter provides a simple and easy method for quantitating the extent of virus growth and consequently, the antiviral activity of test compounds. The plasmid pNLRLuc contains the proviral NL-Rluc DNA cloned into pUC18 at the PvuII site. The NL-RLuc virus was prepared by transfection of 293T cells with the plasmid pNLRLuc. Transfections were performed using the LipofectAMINE PLUS kit from Invitrogen (Carlsbad, Calif.) according to the manufacturer and the virus generated was titered in MT-2 cells. For susceptibility analyses, the titrated virus was used to infect MT-2 cells in the presence of compound, and after 5 days of incubation, cells were processed and quantitated for virus growth by the amount of expressed luciferase. Assay media was RPMI 1640 supplemented with 10% heat inactivated fetal bovine serum (FBS), 100 units/ml penicillin G/100 units/ml streptomycin, 10 mM HEPES buffer pH 7.55 and 2 mM L-glutamine. The results from at least 2 experiments were used to calculate the EC50 values. Luciferase was quantitated using the Dual Luciferase kit from Promega (Madison, Wis.). Susceptibility of viruses to compounds was determined by incubation in the presence of serial dilutions of the compound. The 50% effective concentration (EC50) was calculated by using the exponential form of the median effect equation where (Fa)=1/[1+(ED50/drug conc.)^m] (Johnson V A, Byington R T. Infectivity Assay. In Techniques in HIV Research. ed. Aldovini A, Walker BD. 71-76. New York: Stockton Press. 1990). Activity equal to A refers to a compound having an EC50<100 nM, while B and C denote compounds having an EC50 between 100 nM and 1 uM (B) or >1 uM (C).

`Cc1cccc(F)c1CN1CCc2cc(-c3c(CN(C)CC4CCOCC4)nc(C)c([C@H](OC(C)(C)C)C(=O)O)c3-c3ccc4c(c3)CCCO4)ccc2C1` [Example 34, (S)-2-(tert-Butoxy)-2-(4-(chroman-6-yl)-5-(2-(2-fluoro-6-methylbenzyl)-1,2,3,4-tetrahydroisoquinolin-6-yl)-2-methyl-6-((methyl((tetrahydro-2H-pyran-4-yl)methyl)amino)methyl)pyridin-3-yl)acetic Acid] was tested, and the EC50 (read-out: Activity) was less than 0.1 µM.
`CCOCCOCc1nc(C)c([C@H](OC(C)(C)C)C(=O)O)c(-c2ccc3c(c2)CCCO3)c1-c1ccc(OCCc2ccc(F)cc2)cc1` [Example 17, (S)-2-(tert-Butoxy)-2-(4-(chroman-6-yl)-6-((2-ethoxyethoxy)methyl)-5-(4-(4-fluorophenethoxy)phenyl)-2-methylpyridin-3-yl)acetic Acid] gave an EC50 (read-out: Activity) of less than 0.1 µM.
`Cc1cc(F)ccc1CN1CCc2cc(-c3c(C)nc(C)c([C@H](OC(C)(C)C)C(=O)O)c3-c3ccc4c(c3)CCCO4)ccc2C1` [Example 56, (S)-2-(tert-Butoxy)-2-(4-(chroman-6-yl)-5-(2-(4-fluoro-2-methylbenzyl)-1,2,3,4-tetrahydroisoquinolin-6-yl)-2,6-dimethylpyridin-3-yl)acetic Acid] showed an EC50 (read-out: Activity) of less than 0.1 µM.
`Cc1cccc(Cl)c1CN1CCc2cc(-c3c(N)nc(C)c([C@H](OC(C)(C)C)C(=O)O)c3-c3ccc4c(c3)CCCO4)ccc2C1` [Example 63, (S)-2-(6-Amino-5-(2-(2-chloro-6-methylbenzyl)-1,2,3,4-tetrahydroisoquinolin-6-yl)-4-(chroman-6-yl)-2-methylpyridin-3-yl)-2-(tert-butoxy)acetic Acid] gave an EC50 (read-out: Activity) of less than 0.1 µM.
`COc1ccc(COc2ccc(-c3c(C)nc(C)c([C@H](OC(C)(C)C)C(=O)O)c3-c3ccc(Cl)cc3)cc2)cc1` [Example 2, (S)-2-(tert-Butoxy)-2-(4-(4-chlorophenyl)-5-(4-((4-methoxybenzyl)oxy)phenyl)-2,6-dimethylpyridin-3-yl)acetic Acid] was tested, and the EC50 (read-out: Activity) was less than 0.1 µM and the EC50 (read-out: EC50 μM) was 0.073 µM.
For `Cc1nc(C)c([C@H](OC(C)(C)C)C(=O)O)c(-c2ccc3c(c2)CCCO3)c1-c1ccc2c(c1)CCN(Cc1cccc(F)c1)C2` [Example 24, (S)-2-(tert-Butoxy)-2-(4-(chroman-6-yl)-5-(2-(3-fluorobenzyl)-1,2,3,4-tetrahydroisoquinolin-6-yl)-2,6-dimethylpyridin-3-yl)acetic Acid], the EC50 (read-out: Activity) was less than 0.1 µM.
`Cc1nc(C)c([C@H](OC(C)(C)C)C(=O)O)c(-c2ccc3c(c2)CCCO3)c1-c1ccc(OCCc2ccc(F)cc2F)cc1` [Example 44, (S)-2-(tert-Butoxy)-2-(4-(chroman-6-yl)-5-(4-(2,4-difluorophenethoxy)phenyl)-2,6-dimethylpyridin-3-yl)acetic Acid] gave an EC50 (read-out: Activity) of less than 0.1 µM.
With `COc1ccc(COc2ccc(-c3c(C)nc(C)c([C@H](OC(C)(C)C)C(=O)O)c3-c3ccc(C)cc3)cc2)cc1` [Example 3, (S)-2-(tert-Butoxy)-2-(5-(4-((4-methoxybenzyl)oxy)phenyl)-2,6-dimethyl-4-(p-tolyl)pyridin-3-yl)acetic Acid] the EC50 (read-out: Activity) was 0.1 to 1 µM and the EC50 (read-out: EC50 μM) was 0.196 µM.
`Cc1nc(C)c([C@H](OC(C)(C)C)C(=O)O)c(-c2cc(F)c3c(c2C)CCCO3)c1-c1cc(F)c2c(c1C)CCCO2` [Example 1, (2S)-2-(4,5-Bis(8-fluoro-5-methylchroman-6-yl)-2,6-dimethylpyridin-3-yl)-2-(tert-butoxy)acetic Acid] was tested, and the EC50 (read-out: Activity) was greater than 1 µM and the EC50 (read-out: EC50 μM) was 1.74 µM.
In the case of `Cc1cc(F)ccc1CN1CCc2cc(-c3c(N)nc(C)c([C@H](OC(C)(C)C)C(=O)O)c3-c3ccc4c(c3)CCCO4)ccc2C1` [Example 60, (S)-2-(6-Amino-4-(chroman-6-yl)-5-(2-(4-fluoro-2-methylbenzyl)-1,2,3,4-tetrahydroisoquinolin-6-yl)-2-methylpyridin-3-yl)-2-(tert-butoxy)acetic Acid], the EC50 (read-out: Activity) is reported as less than 0.1 µM and the EC50 (read-out: EC50 μM) is reported as 0.003 µM.
`Cc1nc(C)c([C@H](OC(C)(C)C)C(=O)O)c(-c2cc(F)c3c(c2)CCCO3)c1-c1ccc2c(c1)CCN(c1ncnc3c1cnn3C)C2` [Example 53, (S)-2-(tert-Butoxy)-2-(4-(8-fluorochroman-6-yl)-2,6-dimethyl-5-(2-(1-methyl-1H-pyrazolo[3,4-d]pyrimidin-4-yl)-1,2,3,4-tetrahydroisoquinolin-6-yl)pyridin-3-yl)acetic Acid] gave an EC50 (read-out: Activity) of less than 0.1 µM.
`Cc1cc(N2CCc3cc(-c4c(C)nc(C)c([C@H](OC(C)(C)C)C(=O)O)c4-c4cc(F)c5c(c4)CCCO5)ccc3C2)ncn1` [Example 52, (S)-2-(tert-Butoxy)-2-(4-(8-fluorochroman-6-yl)-2,6-dimethyl-5-(2-(6-methylpyrimidin-4-yl)-1,2,3,4-tetrahydroisoquinolin-6-yl)pyridin-3-yl)acetic Acid] showed an EC50 (read-out: Activity) of less than 0.1 µM.
`Cc1nc(C)c([C@H](OC(C)(C)C)C(=O)O)c(-c2ccc3c(c2)CCCO3)c1-c1ccc2c(c1)CCN(Cc1ccccc1Cl)C2` [Example 27, (S)-2-(tert-Butoxy)-2-(5-(2-(2-chlorobenzyl)-1,2,3,4-tetrahydroisoquinolin-6-yl)-4-(chroman-6-yl)-2,6-dimethylpyridin-3-yl)acetic Acid] showed an EC50 (read-out: Activity) of less than 0.1 µM and an EC50 (read-out: EC50 μM) of 0.005 µM.
Work on `Cc1nc(N)c(-c2ccc3c(c2)CCN(Cc2cccc(F)c2C)C3)c(-c2ccc3c(c2)CCCO3)c1[C@H](OC(C)(C)C)C(=O)O` [Example 61, (S)-2-(6-Amino-4-(chroman-6-yl)-5-(2-(3-fluoro-2-methylbenzyl)-1,2,3,4-tetrahydroisoquinolin-6-yl)-2-methylpyridin-3-yl)-2-(tert-butoxy)acetic acid] yielded an EC50 (read-out: Activity) of less than 0.1 µM.
Work on `Cc1nc(C)c([C@H](OC(C)(C)C)C(=O)O)c(-c2cc(F)c3c(c2C)CCCO3)c1-c1ccc(OCCc2ccc(F)cc2)cc1` [Example 6, (2S)-2-(tert-Butoxy)-2-(4-(8-fluoro-5-methylchroman-6-yl)-5-(4-(4-fluorophenethoxy)phenyl)-2,6-dimethylpyridin-3-yl)acetic Acid] yielded an EC50 (read-out: Activity) of less than 0.1 µM.
Compound `Cc1nc(C)c([C@H](OC(C)(C)C)C(=O)O)c(-c2ccc(OCCc3ccc(F)cc3)cc2)c1-c1ccc(OCCc2ccc(F)cc2)cc1` [Example 8, (S)-2-(4,5-Bis(4-(4-fluorophenethoxy)phenyl)-2,6-dimethylpyridin-3-yl)-2-(tert-butoxy)acetic Acid] has an EC50 (read-out: Activity) of 0.1 to 1 µM.
With `CCOc1ccc(-c2c(C)nc(C)c([C@H](OC(C)(C)C)C(=O)O)c2-c2cc(F)c3c(c2C)CCCO3)cc1` [Example 7, (2S)-2-(tert-Butoxy)-2-(5-(4-ethoxyphenyl)-4-(8-fluoro-5-methylchroman-6-yl)-2,6-dimethylpyridin-3-yl)acetic Acid] the EC50 (read-out: Activity) was 0.1 to 1 µM and the EC50 (read-out: EC50 μM) was 0.545 µM.
`Cc1cccc(F)c1CN1CCc2cc(-c3c(C)nc(C)c([C@H](OC(C)(C)C)C(=O)O)c3-c3ccc4c(c3)CCCO4)ccc2C1` [Example 25, (S)-2-(tert-Butoxy)-2-(4-(chroman-6-yl)-5-(2-(2-fluoro-6-methylbenzyl)-1,2,3,4-tetrahydroisoquinolin-6-yl)-2,6-dimethylpyridin-3-yl)acetic Acid] gave an EC50 (read-out: Activity) of less than 0.1 µM.
`Cc1nc(C)c([C@H](OC(C)(C)C)C(=O)O)c(-c2ccc3c(c2)C(F)(F)CCO3)c1-c1ccc2c(c1)CCN(Cc1ccccc1F)C2` [Example 37, (S)-2-(tert-Butoxy)-2-(4-(4,4-difluorochroman-6-yl)-5-(2-(2-fluorobenzyl)-1,2,3,4-tetrahydroisoquinolin-6-yl)-2,6-dimethylpyridin-3-yl)acetic Acid] was tested, and the EC50 (read-out: Activity) was less than 0.1 µM.
`Cc1nc(C)c([C@H](OC(C)(C)C)C(=O)O)c(-c2ccc3c(c2)CCCO3)c1-c1ccc2c(c1)CCN(CCCc1ccc(F)cc1)C2` [Example 31, (S)-2-(tert-Butoxy)-2-(4-(chroman-6-yl)-5-(2-(3-(4-fluorophenyl)propyl)-1,2,3,4-tetrahydroisoquinolin-6-yl)-2,6-dimethylpyridin-3-yl)acetic Acid] was tested, and the EC50 (read-out: Activity) was less than 0.1 µM.
`Cc1cccc(Cl)c1CN1CCc2cc(-c3c(C)nc(C)c([C@H](OC(C)(C)C)C(=O)O)c3-c3ccc4c(c3)CCCO4)ccc2C1` [Example 29, (S)-2-(tert-Butoxy)-2-(5-(2-(2-chloro-6-methylbenzyl)-1,2,3,4-tetrahydroisoquinolin-6-yl)-4-(chroman-6-yl)-2,6-dimethylpyridin-3-yl)acetic Acid] gave an EC50 (read-out: Activity) of less than 0.1 µM.
`COc1nccc(N2CCc3cc(-c4c(N)nc(C)c([C@H](OC(C)(C)C)C(=O)O)c4-c4ccc5c(c4)CCCO5)ccc3C2)n1` [Example 64, (S)-2-(6-Amino-4-(chroman-6-yl)-5-(2-(2-methoxypyrimidin-4-yl)-1,2,3,4-tetrahydroisoquinolin-6-yl)-2-methylpyridin-3-yl)-2-(tert-butoxy)acetic Acid] was tested, and the EC50 (read-out: Activity) was less than 0.1 µM.
`Cc1nc(C)c([C@H](OC(C)(C)C)C(=O)O)c(-c2ccc3c(c2)CCCO3)c1-c1ccc2c(c1)CCN(Cc1ccc(F)cc1)C2` [Example 20, (S)-2-(tert-Butoxy)-2-(4-(chroman-6-yl)-5-(2-(4-fluorobenzyl)-1,2,3,4-tetrahydroisoquinolin-6-yl)-2,6-dimethylpyridin-3-yl)acetic Acid] was tested, and the EC50 (read-out: Activity) was less than 0.1 µM.
